Test results reported in paper PMC8882611, “Corylus avellana: A Source of Diarylheptanoids With α-Glucosidase Inhibitory Activity Evaluated by in vitro and in silico Studies” (Frontiers in Plant Science, 2022).

Tests used:
[1] = target: α-glucosidase enzyme (from Saccharomyces cerevisiae) (Saccharomyces cerevisiae, UniProt P53341); assay: biochemical; settings: substrate 4-nitrophenyl α-D-glucopyranoside, pH 7.0, 37°C; samples 200, 300, 400 μM; mean ± SD of three experiments; read-out: α-Glucosidase inhibitory activity IC50 ± SD
Sequence of α-glucosidase enzyme (from Saccharomyces cerevisiae) (P53341 whole entry): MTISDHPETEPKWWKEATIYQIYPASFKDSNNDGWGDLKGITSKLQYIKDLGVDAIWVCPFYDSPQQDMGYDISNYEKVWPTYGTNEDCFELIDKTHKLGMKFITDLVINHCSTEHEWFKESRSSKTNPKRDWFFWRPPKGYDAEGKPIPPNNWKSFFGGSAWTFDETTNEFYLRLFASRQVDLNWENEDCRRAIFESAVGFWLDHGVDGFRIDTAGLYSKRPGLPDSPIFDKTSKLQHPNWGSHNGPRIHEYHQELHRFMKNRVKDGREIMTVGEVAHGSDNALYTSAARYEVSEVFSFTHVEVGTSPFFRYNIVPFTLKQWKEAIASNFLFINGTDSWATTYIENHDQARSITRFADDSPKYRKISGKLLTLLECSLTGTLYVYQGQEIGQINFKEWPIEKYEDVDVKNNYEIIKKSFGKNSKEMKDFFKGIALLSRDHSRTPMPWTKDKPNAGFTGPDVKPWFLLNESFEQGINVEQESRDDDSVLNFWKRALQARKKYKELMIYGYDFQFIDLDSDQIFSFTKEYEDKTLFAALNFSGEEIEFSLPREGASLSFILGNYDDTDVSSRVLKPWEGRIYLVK
Description: α-Glucosidase inhibitory activity was evaluated as previously reported ([Kilinc et al., 2020]). Briefly, 0.1 M phosphate buffer at pH 7.0 (150 μL) was added to each well; successively 10 μL of samples, dissolved in MeOH at different concentrations (200, 300, and 400 μM) were added; at this point, the reaction was initiated by the addition of 15 μL of the α-glucosidase enzyme (from Saccharomyces cerevisiae) (2 U/mL) in each well, and the plate was incubated for 5 min at 37°C; after 5 min 75 μL of the substrate (2.5 mM) 4-nitrophenyl α-D-glucopyranoside were added, and successively the plate was incubated for 10 min at 37°C. The absorbance was measured at 405 nm before (T0′) and after the incubation with the enzyme (T10′). […] Negative control absorbance (phosphate buffer in place of the sample) was also recorded. Inhibition of the enzyme was calculated, and the results were expressed as IC50 values. All experiments were carried out in triplicate. IC50 values were calculated through non-linear regression using Graphpad Prism 5 Software and expressed as means ± SD (standard deviation). They were considered statistically significant with values of p < 0.05.

[2] = system: Bacillus cereus, Staphylococcus aureus, Escherichia coli and Pseudomonas aeruginosa; design: method as in Cerulli et al., 2017; settings: 40 μg/disk; tetracycline as positive control; ref Cerulli et al., 2017; cited from earlier work
[3] = system: H2O2– and H2O2/Fe2+-induced lipid peroxidation; design: method as in Masullo et al., 2015b; settings: 10 μM; TBARS assay; ref Masullo et al., 2015b; cited from earlier work
plasma proteins = system: plasma proteins; design: method as in Cerulli et al., 2021; Masullo et al., 2021; settings: 10 μM, ref Cerulli et al., 2021, Masullo et al.; cited from earlier work

| Compound | IC50 [1] | further results |
| --- | --- | --- |
| O=C1/C=C/CCc2ccc(O)c(c2)-c2cc(ccc2O)CC1 [Alnusone (21), Alnusone] | 154 ± 8.3 µM |  |
| O=C1CCc2ccc(O)c(c2)-c2cc(ccc2O)C[C@H](O)[C@H](O)[C@H]1O [Carpinontriol B (24), Carpinontriol B] | 107 ± 6.1 µM | zones of inhibition [2]: completely comparable to those obtained with tetracycline |
| COc1c2cc(c(OC)c1O)Oc1ccc(cc1)CCC(=O)CC/C=C/2 [Giffonin A (1), Giffonin A] | 184 ± 6.9 µM |  |
| COc1c2cc(c(OC)c1O)Oc1ccc(cc1)[C@@H](O)CC(=O)CC/C=C/2 [Giffonin B (2), Giffonin B] | 164 ± 5.2 µM |  |
| COc1c2cc(c(OC)c1O)Oc1ccc(cc1)CC[C@H](O)CC/C=C\2 [Giffonin C (3), Giffonin C] | 105 ± 6.9 µM |  |
| COc1c2cc(c(OC)c1O)Oc1ccc(cc1)CCC(=O)CC/C=C\2 [Giffonin D (4), Giffonin D] | 108 ± 6.1 µM | reduction of H2O2-induced lipid peroxidation [3]: more than 60%; reduction of H2O2/Fe2+-induced lipid peroxidation [3]: > 50% |
| COc1c2cc(c(OC)c1O)Oc1ccc(cc1)CCCC[C@H](O)/C=C\2 [Giffonin E (5), Giffonin E] | 167 ± 4.6 µM |  |
| COc1c2cc(c(OC)c1O)Oc1ccc(cc1)CCC(=O)C[C@H](O)/C=C\2 [Giffonin F (6), Giffonin F] | 146 ± 4.3 µM |  |
| COc1c2cc(c(OC)c1O)Oc1ccc(cc1)CC[C@H](O)/C=C/C=C\2 [Giffonin G (7), Giffonin G] | 108 ± 9.2 µM | reduction of oxidation of thiol groups and carbonylation in plasma proteins (plasma proteins): most active compounds |
| COc1c(O)cc2cc1Oc1ccc(cc1)CC[C@H](O)/C=C/C=C\2 [Giffonin H (8), Giffonin H] | 109 ± 2.9 µM | reduction of H2O2-induced lipid peroxidation [3]: more than 60%; reduction of H2O2/Fe2+-induced lipid peroxidation [3]: > 50% |
| O=C1C=CCCc2ccc(OC3OC(CO)C(O)C(O)C3O)c(c2)-c2cc(ccc2OC2OCC(O)C(O)C2O)CC1 (stereo not drawn) [Giffonin I (9), Giffonin I] | 105 ± 4.9 µM |  |
| COc1c2cc(c(OC)c1O)Oc1ccc(cc1)[C@@H](O)C[C@@H](O)CC/C=C\2 [Giffonin J (10), Giffonin J] | 56.6 ± 9.6 µM |  |
| COc1c2cc(c(OC)c1O)Oc1ccc(cc1)[C@@H](O)C[C@@H](O)/C=C/C=C\2 [Giffonin K (11), Giffonin K] | 70 ± 3.1 µM | reduction of oxidation of thiol groups and carbonylation in plasma proteins (plasma proteins): most active compounds |
| Oc1ccc2cc1-c1cc(ccc1O)C[C@H](O)[C@@H](O)[C@H](O)C[C@@H](O)C2 [Giffonin L (12), Giffonin L] | 172 ± 8.9 µM |  |
| O=C1CCc2ccc(O)c(c2)-c2cc(ccc2O)C[C@H](O)C[C@@H]1O [Giffonin M (13), Giffonin M] | 114 ± 9.7 µM |  |
| O=C1CCc2ccc(O)c(c2)-c2cc(ccc2O)CC(OC2OC(CO)C(O)C(O)C2O)CC1O (stereo not drawn) [Giffonin N (14), Giffonin N] | 128 ± 11.3 µM |  |
| O=C1C[C@@H](O)Cc2ccc(O)c(c2)-c2cc(ccc2O)C[C@H](O)[C@H]1O [Giffonin O (15), Giffonin O] | 124 ± 11.1 µM |  |
| Oc1ccc2cc1-c1cc(ccc1O)C[C@H](O)[C@H](O)C(O)[C@@H](O)[C@H](O)C2 (stereo partly drawn) [Giffonin P (16), Giffonin P] | 55.3 ± 7.7 µM |  |
| O=C1/C=C/CCc2ccc(O)c(c2)Oc2ccc(cc2)CC1 [Giffonin Q (18), Giffonin Q] | 127 ± 5.9 µM |  |
| O=C1/C=C/C=C/c2ccc(O)c(c2)Oc2ccc(cc2)CC1 [Giffonin R (19), Giffonin R] | 128 ± 6.1 µM |  |
| COc1cc2cc(c1O)Oc1ccc(cc1)CCC(=O)/C=C/C=C/2 [Giffonin S (20), Giffonin S] | 126 ± 8.9 µM |  |
| O=C1CCc2ccc(OC3OC(CO)C(O)C(O)C3O)c(c2)-c2cc(ccc2O)CC(O)C(O)C1O (stereo not drawn) [Giffonin T (22), Giffonin T] | 131 ± 6.1 µM |  |
| O=C1Cc2ccc(O)c(c2)-c2cc(ccc2O)C[C@@H](O)[C@@H](O)[C@@H](O)[C@H]1O [Giffonin U (23), Giffonin U] | 175 ± 9.8 µM | zones of inhibition [2]: completely comparable to those obtained with tetracycline |
| O=C1CCc2ccc(O)c(c2)-c2cc(ccc2O)CC[C@@H](O)[C@H]1O [Giffonin V (25), Giffonin V] | 123 ± 4.4 µM |  |
| O=C(CCc1ccc(O)c(O)c1)C[C@H](CCc1ccc(O)c(O)c1)O[C@@H]1OC[C@@H](O)[C@H](O)[C@H]1O [Oregonin (17), Oregonin] | 144 ± 7.2 µM |  |
